From ChEMBL document CHEMBL1149116, “2-Anilino-4-(thiazol-5-yl)pyrimidine CDK inhibitors: synthesis, SAR analysis, X-ray crystallography, and biological activity” (J Med Chem, 2004)

What was measured:
[1] = target: Cyclin-dependent kinase 2 (Homo sapiens, UniProt P24941)
[2] = target: Cyclin-dependent kinase 4 (Homo sapiens, UniProt P11802)
Sequence of Cyclin-dependent kinase 4 (P11802 whole entry): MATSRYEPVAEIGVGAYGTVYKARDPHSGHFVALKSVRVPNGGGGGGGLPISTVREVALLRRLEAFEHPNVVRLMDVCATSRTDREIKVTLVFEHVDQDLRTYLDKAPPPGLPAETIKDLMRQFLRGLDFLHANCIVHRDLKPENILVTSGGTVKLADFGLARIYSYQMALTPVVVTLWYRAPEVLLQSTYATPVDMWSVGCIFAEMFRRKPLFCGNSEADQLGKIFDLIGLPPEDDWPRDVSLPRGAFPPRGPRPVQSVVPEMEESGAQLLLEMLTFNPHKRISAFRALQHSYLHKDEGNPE
Description: Inhibitory activity against human CDK4 (Cyclin dependent kinase 4)

| Ki [1] [nM] | Ki [2] [nM] | SMILES |
| --- | --- | --- |
| 2500 | > 20000 | Cc1nc(C)c(-c2ccnc(Nc3ccc(Cl)cc3)n2)s1 |
| 140 | 320 | Cc1nc(C)c(-c2ccnc(Nc3ccc(O)cc3)n2)s1 |
| 670 | 9400 | Cc1nc(C)c(-c2ccnc(Nc3cccc(Cl)c3)n2)s1 |
| > 20000 | > 20000 | CNc1nccc(-c2sc(C)nc2C)n1 |
| 100 | 900 | Cc1nc(C)c(-c2ccnc(Nc3cccc(F)c3)n2)s1 |
| 400 | 10600 | Cc1nc(C)c(-c2ccnc(Nc3cccc(N)c3)n2)s1 |
| 1200 | 1200 | Cc1nc(C)c(-c2ccnc(Nc3ccccc3F)n2)s1 |
| > 20000 | > 20000 | Cc1nc(C)c(-c2ccnc(N(C)C)n2)s1 |
| 4100 | > 20000 | Cc1nc(C)c(-c2ccnc(Nc3ccc([N+](=O)[O-])cc3)n2)s1 |
| – | 16000 | Cc1nc(C)c(-c2ccnc(N)n2)s1 |
| > 20000 | > 20000 | Cc1nc(C)c(-c2ccnc(Nc3ccccc3Cl)n2)s1 |
| 300 | 480 | Cc1nc(C)c(-c2ccnc(Nc3cccc(C#N)c3)n2)s1 |
| 80 | 2600 | Cc1nc(C)c(-c2ccnc(Nc3ccccc3)n2)s1 |

The next lines start with the compound.

| SMILES | Ki [1] [nM] | Ki [2] [nM] |
| --- | --- | --- |
| CNc1nc(C)c(-c2ccnc(Nc3cccc(O)c3)n2)s1 | 110 | 370 |
| Cc1nc(C)c(-c2ccnc(N(C)c3cccc([N+](=O)[O-])c3)n2)s1 | > 20000 | > 20000 |
| Cc1nc(N(C)C)sc1-c1ccnc(Nc2cccc([N+](=O)[O-])c2)n1 | 60 | 5300 |
| Cc1nc(N)sc1-c1ccnc(Nc2ccc(O)cc2)n1 | 30 | 320 |
| CNc1nc(C)c(-c2ccnc(Nc3cccc([N+](=O)[O-])c3)n2)s1 | 800 | 1600 |
| CCNc1nc(C)c(-c2ccnc(Nc3cccc(O)c3)n2)s1 | > 10000 | > 20000 |
| Cc1nc(C)c(-c2ccnc(Nc3ccccc3C(F)(F)F)n2)s1 | > 20000 | > 20000 |
| Cc1nc(C)c(-c2ccnc(Nc3cccc(C(F)(F)F)c3)n2)s1 | > 20000 | > 20000 |
| Cc1nc(-c2ccccn2)sc1-c1ccnc(Nc2cccc([N+](=O)[O-])c2)n1 | > 20000 | > 20000 |
